Experimental data taken from US9358243B2, “Pharmaceutical compounds for use in the therapy of Clostridium difficile infection” (ETH Zurich, priority 2011, dated 2016).

How the values were obtained:
[1] = target: T1, His-tagged cysteine protease domain of C. difficile toxin B (Clostridioides difficile, UniProt P18177); test: Determination of EC50 in presence of 10 mM Ca2+ (cleavage of TcdB cysteine protease domain, SDS-PAGE); format: biochemical, Clostridium difficile; conditions: for cleavage activity at 100 μM: 100 μM compound, 10 mM Ca2+, FIG. 1A; for activity (cleavage of TcdB CPD) in the presence of calcium, compared with IP6: in the presence of calcium (10 mM Ca2+)
T1 construct: cysteine protease domain of C. difficile toxin B
T1 sequence (P18177 544-799 limits assumed): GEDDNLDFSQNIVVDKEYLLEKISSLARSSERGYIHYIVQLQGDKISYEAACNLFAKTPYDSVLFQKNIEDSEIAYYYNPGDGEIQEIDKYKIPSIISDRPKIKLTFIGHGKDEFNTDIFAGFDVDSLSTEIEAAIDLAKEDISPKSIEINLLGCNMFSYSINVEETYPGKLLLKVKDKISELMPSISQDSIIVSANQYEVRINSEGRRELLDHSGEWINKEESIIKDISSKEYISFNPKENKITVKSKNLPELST
Description: The compound to be tested was added to a recombinant His-tagged cysteine protease domain of C. difficile toxin B of SEQ ID 1 in presence of 10 mM Ca^2+ in 100 mM Tris pH7.4 and incubated for 2 h at 37° C. Cleaved protein fragments were separated by SDS-PAGE and visualized by Coomassie staining. The extent of cleavage quantified from protein band intensities using the ImageJ software package. Signals were normalized to cleavage of positive and negative controls.

[2] = target: T1, His-tagged cysteine protease domain of C. difficile toxin B; test: Comparison of cleavage kinetics in presence of 10 mM Ca2+; format: biochemical, Clostridium difficile; conditions: 37° C., FIG. 1B
Description: The compound to be tested was added to the His-tagged cysteine protease domain of C. difficile toxin B (same sequence as given above) in presence of 10 mM Ca^2+ in 100 mM Tris pH 7.4 and incubated for 24 h at 37° C., with aliquots removed at regular intervals. Cleaved protein fragments were separated, visualized and analyzed as indicated above.

Compound	cleavage activity at 100 μM [1]	activity (cleavage of TcdB CPD) in the presence of calcium, compared with IP6 [1]	extent of cleavage after 4 h relative to IP6 [2]	EC50 [1]
myo-inositol-pentakisphosphate-2-PEG(400) [(7)]	retains residual activity	improved ability to cleave TcdB CPD	5 fold	–
O=P(O)(O)O[C@H]1[C@H](OS(=O)(=O)O)[C@@H](OP(=O)(O)O)[C@H](OS(=O)(=O)O)[C@@H](OP(=O)(O)O)[C@H]1OS(=O)(=O)O [PSPSPS]	–	–	–	20 µM
O=P(O)(O)O[C@H]1[C@H](OP(=O)(O)O)[C@@H](OP(=O)(O)O)[C@H](OP(=O)(O)O)[C@@H](OP(=O)(O)O)[C@H]1OP(=O)(O)O [IP6, myo-inositol hexakisphosphate, reference compound]	disappears almost completely	–	–	601 µM
O=S(=O)(O)OC1C(OS(=O)(=O)O)C(OS(=O)(=O)O)C(OS(=O)(=O)O)C(OS(=O)(=O)O)C1OS(=O)(=O)O (stereo not shown) [IS6, inositolhexakissulfate]	–	much more active than IP6	–	–
